Patent US7544711B2, “Use of nitroderivatives in urinary incontinence” (Nicox S.A., priority 1996, dated 2009)

Experiments:
[1] = system: pig urethral smooth muscle; assay: Relaxing effect in pig urethral smooth muscle; format: cell-based; conditions: 10^−5 M; for Relaxation % 1: first treatment; for Relaxation % 1 / Relaxation % 2: 100% = highest relaxation in medium without Ca++; for Relaxation % 2: second consecutive treatment; for relaxing activity and tachyphylaxis (in words): two consecutive treatments
Method: Samples of urethra were removed from female pigs about 6 months old.
The urethra was opened longitudinally and samples of smooth muscle about 1×2×6 mm in size were removed from an area about 4 mm below ureteral orifices. The samples of smooth muscle were placed in baths for isolated organs, incubated at 37° C. and subjected to a 10 mN tension and connected to a force transducer for measuring mechanical activity. After a period of balancing of about 60 minutes, the prepared samples were exposed to Krebs solution without Ca++ to determine the highest relaxation level. Normal tone was then restored by adding Krebs solution. The relaxation effects of the test derivatives were then measured. The test wasa repeated two consecutive times for each prepared sample in order to evaluate any tachyphylaxis effects.

[2] = system: isolated rat detrusor; assay: Contraction inhibiting activity in isolated rat detrusor (40 mM KCl); format: cell-based
Method: Male Wistar rats weighing 200 to 300 g were used. The method used is described by Zhou Q. et al. (1995) (see Example 13). After sacrificing the rats by cervical displacement the urinary bladder was isolated and horizontal strips of detrusor muscle about 2 mm wide and about 5 mm long were obtained from the median region. The strips were placed in baths for isolated organs containing Krebs liquid and subjected to a 1 g tension. Tension variations during the test were measured isometrically by using a pressure transducer connected to a polygraph. The inhibitory effect of a pre-treatment with the test derivatives on contraction induced by 40 mM KCl was determined versus drugs having an opening potassium channel activity (cromakalin, nicorandil) nitroderivatives (nitroglycerin, nicorandil) and anti-inflammatories (indomethacin, naproxen, nimesulide).

[3] = system: normal urinary bladder of conscious dogs; assay: Cystometrogram, normal urinary bladder of conscious dogs; format: in vivo, dog; conditions: 4 hours following dosing, IC=interval between contractions
Method: The cystometrogram of conscious dogs was determined in accordance with the method described by Howe B. B. et al., ZENECA ZD 6169: a NOVEL KATP Channel opener with in vivo selectivity for urinary bladder, Journal of Pharmacology and Experimental Therapeutics, 274, 884-890, 1995.
Female Beagle dogs with urinary bladder catheterised through the urethra by operating in sterile conditions, were used. Catheters were connected to a perfusor which perfused into the urinary bladder a physiological solution and to a pressure transducer in order to measure intravesical pressure. After 15 minute stabilisation, a 30 ml bolus of physiological solution was perfused into the urinary bladder in order to measure increased intravesical pressure and a series of smaller boluses were then perfused until spontaneous contractions were observed. After a period of contraction stabilisation, contracting activity was monitored for 60 minutes. The animals were then treated orally with the test products and urination frequency was then measured during 4 hours following dosing in […].

[4] = system: normal urinary bladder of conscious rats; assay: Cystometrogram, normal urinary bladder of conscious rats; format: in vivo, rat; conditions: 5 mg/kg oral, 4 hours after dosing, IC=interval between contractions
Method: Cystometrograms of conscious rats were determined according to the method described by Howe B. B et al. (1995) (see Example 9).
Male Wistar rats weighing about 500 g were used. The rats were anaesthetised with Nembutal. After opening their abdomen and exposing their urinary bladder, a catheter filled with physiological solution was implanted in the urinary bladder and caused to emerge from the back of the animals. The abdominal muscle and skin were then sutured. 48 hours after surgery the animals were placed in metabolic cages and the catheters were connected to a perfusor which perfused 0.18 ml/min of a physiological solution into the urinary bladder, and to a pressure transducer in order to measure intravesical pressure. After stabilisation for 60 minutes, the animals were orally treated with the test products and urination frequency was than measured during 4 hours after dosing.

[5] = molecular target: T1, nitroxy-sinthetase (Rattus norvegicus, UniProt Q06518); assay: LPS-induced nitroxysynthetase activity in rat neutrofils after i.p. dosing; format: in vivo; conditions: 10 mg/kg i.p.; LPS 5 mg/kg i.v.; rat neutrofils four hours later; compared to the group treated with the vehicle alone
T1 construct: Blood was collected for neutrofil isolation; from tissue; host or cells: neutrophils isolated from blood of LPS-treated Wistar rats
Method: The nitroxy-sinthetase inhibiting activity induced by lipopolisaccharide (LPS) was determined in rat neutrofils after administration of any of the test compounds and compared with that obtained after treatment with the suspending vehicle alone (0.5% carboxymethyl cellulose, 5 ml/kg) and a product used as comparison. Briefly, Wistar rats fasted for 24 hours before treatment received one of the test compounds (10 mg/kg) intraperitoneally or the vehicle LPS (5 mg/kg) intravenously (caudal vein).
Four hours later the animals were sacrified. Blood was collected for neutrofil isolation.
The enzymatic activity was determined according to the od described by Assreuy J. et al. Feedback inhibition of nitric oxide sinthase activity by nitric oxide, British Journal of Pharmacology, […], 1993.

[6] = system: gastroenteric tract of rats; assay: In vivo gastrointestinal safety study; parameters: species or system rat
Excerpt: Forty Sprague Dawley rats weighing about 300 g were randomly divided into 4 groups and orally treated twice a day for 4 days according to the following experimental scheme:
Eighteen hours after the last treatment the rats were sacrified to determine any gastrointestinal damage.

[7] = system: rat femoral artery strips; assay: Relaxing activity on vessel smooth muscle (phenylephrine-contracted femoral artery strips); format: cell-based; conditions: contractions induced by 3×10^−5 M phenylephrine
Excerpt: Male Wistar rats weighing 200 to 300 g were used. The method used is described by Zhou Q. et al. The inhibitory mechanism of nicorandil in isolated rat urinary bladder and femoral artery, European Journal of Pharmacology, 153-159, 1995. After sacrifing the rats by cervical displacement, the femoral arteries were isolated for the preparation of helicoidal strips about 1×15 mm in size, from which the endothelium was removed. The prepared strips were placed in baths for isolated organs containing Krebs liquid and subjected to a weight of 0.5 g. Tension variations during the test were isometrically measured by means of a pressure transducer connected to a polygraph. The inhibitory effect of a treatment with the test derivatives on contractions induced by 3×10^−5 M phenylephrine versus reference preparations having a potassium channel opening activity and/or NO donors was measured.

[8] = system: normal urinary bladder strips; assay: Electrically induced contraction of urinary bladder strips, normal rats; format: cell-based, rat; conditions: 10^−6 M; normal tissue; 1/7 Hz electrical stimulation
Excerpt: (§1) The vesical hypertrophy model secondary to urethral obstruction in rats described by Malmgren A. et al.: Cystometrical evaluation of bladder instability in rats with intravesical outflow obstruction, The Journal of Urology, 1987, 137, 1291-1294, was used in order to evaluate the effect of the drugs on hyperactive vesical muscle.
(§2) Male Sprague Dawley rats weighing about 250 g were used. In order to obtain partial urethral obstruction, the rats were anaesthetised with Nembutal and the urinary bladder and urethra were exposed by abdominal incision. A ligature was made around the urethra in the presence of an intraluminal cannula with 1 mm diameter. After suturing the abdominal wall the animals were stabulated for 6 weeks in order for vesical hypertrophy to start.
(§3) The in vitro experiments were conducted with the parallel use of strips obtained from normal rats and rats with vesical hypertrophy.
(§4) The in vitro urinary bladder strips were prepared as described above and the inhibition induced by the drugs on contraction induced by 1/7 Hz electrical stimulation lasting 1 msec., an above maximal voltage, produced by two platinum electrodes, was measured.

[9] = system: hypertrophic urinary bladder strips; assay: Electrically induced contraction of urinary bladder strips, rats with vesical hypertrophy; format: cell-based, rat; conditions: 10^−6 M; hypertrophic tissue; 1/7 Hz electrical stimulation
Excerpt: as §1, §2, §3, §4

[10] = system: normal urinary bladders of anaesthetised rats; assay: Urinary bladder voiding reflex in anaesthetised rats; format: in vivo, rat; conditions: 18 hours after last treatment, controls = 100
Method: 40 Sprague Dawley rats weighing about 300 g were randomly divided into 4 groups and orally treated twice a day for 4 days according to the following experimental scheme: 18 hours after the last treatment, the effects on the urinary bladder voiding reflex were evaluated using the method described by Maggi C. A. et al., Prostanoids modulate reflex micturition by acting through capsaicin-sensitive afferents, European Journal of Pharmacology, 105-112, 1988. The animals were anaesthetised with urethane, the urinary bladder was prepared for intraluminal pressure measurement. After a stabilisation period with an empty urinary bladder, this was progressively filled with a physiological solution by slow infusion (0.046 ml/min). A contraction of the urinary bladder was observed upon reflex triggering. The volume of physiological solution and intraluminal pressure required to evoke the reflex (volume and pressure thresholds) were measured. […] All tested products increased this threshold and can, therefore, be considered useful in case of detrusor instability.

[11] = Rattus norvegicus, 10^−4 M, contraction induced by 40 mM KCl
[12] = 3 mg/kg oral twice a day for 4 days
[13] = 3 mg/kg oral twice a day for 4 days, rats
[14] = 5 mg/kg oral twice a day for 4 days

Row | Compound | Relaxation % 1 [1] | Relaxation % 2 [1] | relaxing activity and tachyphylaxis (in words) [1] | IC treated/IC baseline ([3]; 3 mg/kg oral) | IC treated/IC baseline [4] | inhibition at 100 µM [2, 11] | also measured
1 | O=[N+]([O-])OCC(CO[N+](=O)[O-])O[N+](=O)[O-] [Nitroglycerin] | 32.1% | 7.3% | active but induced tachyphylaxis | – | – | – | inhibition at 10 µM ([2]; Rattus norvegicus): 28.7%
2 | O=C(O)c1ccccc1Nc1cccc(C(F)(F)F)c1 [Flufenamic acid, 2-[[3-(trifluoromethyl)phenyl]-amino]benzoic acid] | 12.2% | 13.2% | has itself a myorelaxing activity | 1.42 | 1.42 | – | NITROXY-SYNTHETASE ACTIVITY [5]: 98 percentage
3 | COc1ccc2c(c1)c(CC(=O)Oc1cccc(CO[N+](=O)[O-])c1)c(C)n2C(=O)c1ccc(Cl)cc1 [NO-I] | 39.3% | 37.2% | – | 1.43 | 1.48 | 46.3% | animals with gastric ulcers ([6]; 3 mg/kg oral twice a day for 4 days, group of 10 rats): 1; inhibition at 100 µM ([7]; Rattus norvegicus, 10^−4 M): 22.2%; Contraction % [8]: 61.5%; Contraction % [9]: 40.3%; Pressure threshold (%) [10, 12]: 223%; Volume threshold (%) [10, 12]: 226%
4 | N=C(N)NCCC[C@H](N)C(=O)O [L-arginine] | 22.7% | 12.2% | active but induced tachyphylaxis | – | – | – | –
5 | CS(=O)(=O)N(C(=O)CCCCCO[N+](=O)[O-])c1ccc([N+](=O)[O-])cc1Oc1ccccc1 [NO-M, N-[(2-PHENOXY-4-NITRO)PHENYL]-N-(6-NITROXY)HEXANOYLMETHANE-SULPHONAMIDE] | – | – | – | – | – | – | Inhibition % ([2]; 10^−4 M, contraction induced by 40 mM KCl): 48.1%; Inhibition % ([7]; 10^−4 M): 19.5%
6 | CC1(C)Oc2ccc(C#N)cc2C(N2CCCC2=O)C1O (centres unmarked) [Cromakalim] | – | – | – | – | – | – | IC treated/IC baseline ([3]; 0.5 mg/kg oral): 1.48; inhibition at 1 µM ([2]; Rattus norvegicus, 10^−6 M, contraction induced by 40 mM KCl): 33.3%; inhibition at 0.3 µM ([7]; Rattus norvegicus, 3 × 10^−7 M): 54.1%; Contraction % [8]: 50.5%; Contraction % [9]: 35.7%
7 | CS(=O)(=O)Nc1ccc([N+](=O)[O-])cc1Oc1ccccc1 [Nimesulide] | – | – | – | – | – | 41.8% | –
8 | COc1ccc2c(c1)c(CC(=O)O)c(C)n2C(=O)c1ccc(Cl)cc1 [Indomethacin] | 1.0% | 1.2% | practically inactive | 1.25 | 1.34 | 38.5% | animals with diffuse adherences [6, 13]: 3/10; animals with ulceration also in the intestines [6, 13]: 7/19; gastrointestinal damage (in words) [6, 13]: ulceration was observed in the stomachs; Contraction % [8]: 78.2%; Contraction % [9]: 76.3%; Pressure threshold (%) [10, 12]: 190%; Volume threshold (%) [10, 12]: 198%
9 | O=C(NCCO[N+](=O)[O-])c1cccnc1 [Nicorandil] | – | – | – | – | – | 26.4% | inhibition at 1 µM ([7]; Rattus norvegicus, 10^−6 M): 32.6%
10 | O=C(Oc1cccc(CO[N+](=O)[O-])c1)c1ccccc1Nc1cccc(C(F)(F)F)c1 [NO-F] | 45.8% | 52.1% | – | 1.76 | 1.62 | – | gastrointestinal damage (in words) ([6]; 5 mg/kg oral twice a day for 4 days, group of 10 rats): one animal with a gastric ulcer and an animal with a duodenal ulcer; NITROXY-SYNTHETASE ACTIVITY [5]: 63 percentage; Pressure threshold (%) [10, 14]: 203%; Volume threshold (%) [10, 14]: 205%
11 | COc1ccc2cc([C@H](C)C(=O)O)ccc2c1 [Naproxen] | – | – | – | – | – | – | inhibition at 100 µM ([2]; Rattus norvegicus, 5 · 10^−4 M, contraction induced by 40 mM KCl): 15.2%
